# Reference: patent publication US20230383264A1, “FULLY FUNCTIONAL CONTRACTILE GASTROINTESTINAL ORGANOID SYSTEM, GENERATED FROM HUMAN-INDUCED PLURIPOTENT STEM CELLS TO DEVELOP A HIGH THROUGHPUT SYSTEM FOR DETECTING EXISTING AND NEWLY-EMERGING PATHOGENS, DRUGS, TOXICITY AND THEREOF” (NeyroblastGX LLC,, priority 2022, published 2023)
# Where “and” joins values, the source holds several entries; their conditions need not be identical. Equal entries are not always repeated. Entries after “also recorded” stand apart in the source; their conditions may differ.
# Assays:
# Assay type in all cases: cell-based, human
# [1] = system: GIO (gastrointestinal organoids from HiPSCs); assay: MTT cell viability assay of Fresh-GIO and Cryo-GIO; conditions: LPS 96 h
# Protocol: We determined GIO viability after the freeze-thaw cycle using a colorimetric assay to evaluate cell metabolic activity with an MTT [3-(4,5-dimethylthiazol-2-yl)-2,5-diphenyltetrazolium bromide] assay, following the manufacturer's instructions for the assay (MilliporeSigma). To perform the reported established MTT assay^40, we grew GIO in 24-well plates and then treated them with or without LPS for 96 h to observe viability and stability. We added lmg/mL of MTT reagent to each −well containing GIO, followed by the 2 h incubation at 37° C. Further, GIO was washed with sterile PBS, followed by the addition of dimethyl sulfoxide (DMSO) in each—well and mixed. After the 10 min incubation, DMSO was absorbed the MTT and run for a plate reader (SpectraMax iD3 Plate Reader, Molecular Devices, San Jose, CA) with the optical absorption density (OD) of 570 nm to determine the amount of MTT binding in the viable cell. This method determined our GIO's viability and stability after the freeze-thaw cycle with or without inflectional susceptible LPS treatment. We calculated the amount of MTT in each well using the following formula: […]
# [2] = system: GIO (gastrointestinal organoids from HiPSCs); assay: 10-plex proinflammatory cytokine array of LPS-treated GIO media
# Protocol: 10-plex proinflammatory cytokine (ProC) measurement of LPS and pathogen/non-pathogenic bacterial treated GIO media (supernatant) was assayed using the Luminex multiplexing cytokine suspension array technology (Immune Monitoring Core Facility, USC, CA). Measurements of IL-2, IL-6, IL-8, IL-10, IL-13, TNF-α, INF-γ, MIP-1α and MIP-1β in the supernatant were analyzed using a MilliPlex MAP human cytokine/chemokine magnetic bead panel (MilliporeSigma, St. Louis, MO). Plates were read on a Bio-Plex 200 System using Bio-Plex Manager software version 6.0 (BioRad, Hercules, CA). Five (5) parameter logistic regression algorithms were used to determine cytokine concentrations based on provided cytokine standards and averages from triplicate-wells. Each ProC standard was measured using six known concentrations (10.0 ng, 2.0 ng, 0.4 ng, 0.08 ng, 0.016 ng, 0.0032 ng), and most regression values reached >0.99. Limit of detection: The lower limit of quantitation (LLOQ) for each ProCs are IL-13 (0.257 pg/mL), IL-1β (0.485 pg/mL), IL-2 (0.157 pg/mL), IL-8 (0.299 pg/mL), TNF-α (0.382 pg/mL), IL-6 (0.179 pg/mL), INF-γ (0.562 pg/mL), IL-10 (1.510 pg/mL), MIP-1α (0.273 pg/mL), MIP-1β ([…]). We quantified the UT-GIO, LPS-treated Sus-GIO, and Cryo-GIO with or without pathogenic and non-pathogenic bacteria. After analyzing ProC in each treatment, we conducted statistical analyses to determine the significance of the ProC status of pathogenic versus non-pathogenic bacteria in LPS-treated (Sus-GIO) and untreated GIO (UT-GIO) using GraphPad Prism (San Diego, CA). We have performed two-way ANOVA with Tukey's multiple comparisons using GraphPad Prism. *p<0.05, **p<0.01, ***p<0.001, ****p<0.0001 denotes significance.
# [3] = system: GIO (gastrointestinal organoids from HiPSCs); assay: Immunocytochemistry of Zo1 (TJP1) and Ki67 in LPS-treated GIO
# Text: Immunocytochemistry (ICC) and flow cytometry is a common cellular protein or antigen-detecting and visualization techniques that can recognize the target of interest or specific marker expression in cells via imaging and a series of flow histograms. The antibody is directly or indirectly linked to a reporter, such as a fluorophore or an enzyme. We performed ICC and flow cytometry as a previously established method developed by the PI.^35, 36 Briefly, for flow cytometry, cells were collected and dissociated with trypsin into a single cell and then blocked with 2% mouse serum and staining with conjugated anti-CDX2 antibody (BD Biosciences) as previously established method^11 and run to NovoCyte Flow Cytometer (Agilent Technologies, Santa Clara, CA). We have verified endodermal marker verification using CDX2 expression using flow cytometry. But for ICC, we have grown GIOs on coverslips coated or directly on the 24-well plates. Then cells were washed with PBS (phosphate-buffered saline) and fixed with 4% paraformaldehyde (PFA, Thermo Scientific). After additional washes in PBS, the cells were permeabilized in 0.1% Triton X-100 (Sigma-Aldrich), followed by blocking with 5% BSA (bovine serum albumin) in PBS containing 10% normal goat serum (NGS, Thermofisher Scientific). Next, the cells were incubated overnight with primary antibodies diluted in a blocking solution at […] with an appropriate dilution indicated by the manufacturer. The next day, the cells were washed three times with washing buffer (1×PBS containing 0.05% Tween 20 and 1% NGS). Then cells were incubated for 2 h at 25° C. with a fluorescent secondary antibody (Life Technologies). […] NGL lab-produced GIO followed a similar developmental pathway in the fetus or fetal mouse^37, including smooth muscle contractile ability determined by smoothA and β-actin,^14 GFAP, and MAP2.
# [4] = system: microbiota-treated GIO bacterial community; assay: Shotgun metagenomics of fecal microbiota-treated GIO; conditions: LPS-treated GIO vs GIO without LPS, with fecal microbiota
# Protocol: Our UT-GIO and Sus-GIO were treated with fecal microbiota to generate GIO with a complete gut-microbiome system observed in vivo.^38,39 In this context, we first prepared fecal microbiota, purchased from Discovery Life Sciences (DLS). DLS obtains fecal microbiota samples according to their protocol approved by their internal review board (IRB). Then, 100 mg of fecal microbiota was dissolved with sterile PBS and filtered by a 70 μm cell strainer to remove aggregates. Filtered fecal microbiota was further diluted 1:100 using an intestinal expansion medium without penicillin/streptomycin. […] Microbiota-treated GIO with or without LPS and pathogenic/nonpathogenic bacterial culture media sample was analyzed by University of California, San Diego (UCSD) Microbiome Core to obtain metagenomic profiles.
# In total, pathogenic and non-pathogenic UT (untreated) and Sus (susceptible)-GIO samples were processed for total DNA extraction and metagenomic library preparation and sequencing. […] Sequencing data were processed first by performing adapter trimming and human-read filtering via pairwise alignments using minimap2. All reads were uploaded into qiita, and taxonomy was assigned using the Web of Life toolkit (WoLtka) implementation in Qiime2 via QIITA (read more here: https://github.com/qiyunzhu/woltka). […]
substance,measurement,setting,value
lipopolysaccharide [LPS],Loss of cell viability (MTT),[1],15-20% and ~20%
same,"IL-10, IL-1β and IFNγ secretion","[2]; LPS 100 μg/mL, 48 h only",upregulated only in 48 h time points; also recorded: upregulated when treated with only 100 μg/mL LPS for 48 h
same,"IL-2, IL-6, IL-8, TNF-α, MIP-1α and MIP-1β secretion","[2]; LPS 10-100 μg/mL, 24 h and 48 h, dose and time-dependent",upregulated
same,IL-13 secretion,[2]; any time point or LPS concentration,unable to detect
same,Effect on Zo1 immunostaining at earlier time point,[3]; 24-48 h,could not see any effect on Zo1
same,Ki67 (intestinal crypt cell type) expression,"[3]; LPS 100 μg/ml, 96 h",decreased
same,Effect on TJP1 (Zo1) expression,"[3]; LPS 50-100 μg/ml, 96 h",affects GIO TJP1; also recorded: disrupts endothelial tight junction protein
same,Change of bacterial community (Bacteroidales bacterium M2),[4],causes a bloom of an unknown Bacteroides sp; also recorded: caused a bloom of unknown Bacteroides sp
